# Assays:
# [1] = system: HAdV5-GFP; assay: HAdV time of addition assay; format: cell-based, human adenovirus (HAdV5); conditions: 10-fold IC50
# Method: The anti-HAdV effect of these natural compounds at different time-points was measured through a time-curve assay using 293β5 cells (3 × 10^4 cells/well in Corning black wall, clear bottom 96-well plates) infected with HAdV5-GFP (MOI 2,000 vp/cell) in the presence of 100 μL of complete DMEM containing 10-fold IC50 concentration of each comound obtained in the plaque assay for each compound or the same volume of DMSO (positive control). A standard infection curve was generated in parallel by infecting cells in the absence of compounds using 2-fold serial dilutions of the virus from an MOI of 2,000 vp/cell in order to extrapolate the GFP resulting from each molecule with its corresponding MOI.
# Parallel samples of HAdV5 were incubated with or without the selected compounds on ice for 1 h. HAdV5 was then added to 293β5 cells and incubated at 37°C. Compounds were then added at the indicated time points until the last time point at 2 h. Then, the cells were incubated for an additional 48 h at 37°C and 5% CO2 before being analyzed for GFP expression using a Typhoon 9410 imager (GE Healthcare Life Sciences) and ImageQuantTL (GE Healthcare Life Sciences), as we described earlier.
# [2] = system: HCMV; assay: Impact on HCMV replication (qPCR of HCMV DNA in HFF); format: cell-based, human cytomegalovirus; conditions: 2-fold IC50 (HAdV plaque assay), 72 h
# Method: To test the anti-HCMV activity of these rotenolone-related compounds, human foreskin fibroblasts (HFF; ATCC, Manassas, VA) were seeded in a 24-well plate (8.3 × 10^4 cells/well), infected with HCMV (MOI 0.05 vp/cell), and incubated in complete DMEM in the presence of either 2-fold IC50 concentration of each compound obtained in the plaque assay against HAdV or the same volume of DMSO (positive control) in duplicate. The cells were incubated for 72 h at 37°C and 5% CO2 and HCMV DNA was purified from the cell lysate using E.Z.N.A Tissue DNA Kit (Omega Biotek, Norcross, GA, USA) following the manufacturer’s instructions. The qPCR primers, conditions, and protocols were the same as previously reported ([Mazzotta et al., 2020b]).
# [3] = system: wild-type HAdV5; assay: Nuclear-associated HAdV genomes (qPCR after nuclear isolation); format: cell-based, human adenovirus (HAdV5); conditions: 10-fold IC50; 45 min after synchronized infection; A549
# Method: Nuclear delivery of HAdV genomes was assessed using qPCR following nuclear isolation from infected cells. Briefly, 1 × 10^6 A549 cells in 6-well plates were infected either with wild-type HAdV5 at an MOI of 2,000 vp/cell in the presence of a 10-fold IC50 concentration of the compounds obtained in the plaque assay or the same volume of DMSO as the positive control. Forty-five minutes after infection, the A549 cells were trypsinized, collected, and washed twice with PBS. The cell pellet was resuspended in 500 μL of 1×hypotonic buffer (20 mM Tris-HCl pH 7.4, 10 mM NaCl, 3 mM MgCl2) and incubated for 15 min at 4°C. Then, 25 μL of NP-40 was added and the samples were vortexed. The homogenates were centrifuged for 10 min at 835 g at 4°C. Following the removal of the cytoplasmic fraction (supernatant), HAdV DNA was isolated from the nuclear (pellet) and cytoplasmic fractions using the E.Z.N.A.® Tissue DNA Kit (Omega Bio-tek, Norcross, GA).
smiles,measurement,setting,value
"C=C(C)[C@H]1Cc2c(ccc3c2O[C@@H]2COc4cc(OC)c(OC)cc4[C@@H]2C3=O)O1 [Rotenone, (2R,6aS,12aS)-8,9-dimethoxy-2-(prop-1-en-2-yl)-1,2,12,12a-tetrahydrochromeno[3,4-b]furo[2,3-h]chromen-6-(6aH)-one]",time dependence of inhibitory activity,[1]; addition up to 2 h,sharp loss of inhibitory activity
same,loss of inhibitory activity,[1]; compound added at 10 min p.i.,more than 25%
same,loss of inhibitory activity,[1]; compound added at 40 min p.i.,more than 60%
same,inhibition of HCMV replication,[2],92.1%
same,accessibility of HAdV genomes to the nucleus,[3],significantly blocked
